From the supplement of paper PMC11061612 come the findings set out here.

What all share (experiment): Bliss excess, mean over the matrix (fraction); higher = more synergy
Assay [1] relates to NCI-H2009 (Lung Adenocarcinoma). The procedure, abridged: (§1)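 Cell lines grown in DMEM/F12 or RPMI with 10% FBS were plated in 1536-well plates and held 24 hours at 37°C, 5% CO2 before 72 hours of exposure to two-drug dose matrices, with DMSO typically at 0.2%. CellTiter-Glo 2.0 luminescence gave viability, which was converted to inhibition. Vehicle wells were set to 0 and blank wells to 1. Combination Emax is the second-highest inhibition in the matrix, and Bliss excess is the observed combination effect minus the expected EA + EB − EA·EB, where EA and EB are the single-agent effects.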

In assay [2] the test system is SBC-3 (Small Cell Lung Carcinoma). A digest of the protocol:
as §1

The test system of assay [3] is MRK-nu-1 (Breast Carcinoma). The procedure, abridged: as §1
For assay [4], the system named is SUP-HD1 (Hodgkin's Lymphoma). A digest of the protocol: as §1
Assay [5] concerns JJN-3 (Plasma Cell Myeloma). The procedure, abridged:
as §1

Assay [6] relates to COR-L105 (Lung Adenocarcinoma). The procedure, abridged:
as §1

The test system of assay [7] is SBC-5 (Small Cell Lung Carcinoma). A digest of the protocol: as §1
Assay [8] deals with NCI-H1975 (Lung Adenocarcinoma). A digest of the protocol: as §1
Assay [9] relates to ATN-1 (T-Lymphoblastic Leukemia). The procedure, abridged:
as §1

In assay [10] the test system is L-363 (Plasma Cell Myeloma). A digest of the protocol:
as §1

For the next assay, the system named is SK-N-DZ (Neuroblastoma). The procedure, abridged: as §1
Assay [11] relates to RPMI-8402 (T-Lymphoblastic Leukemia). The procedure, abridged: as §1
Assay [12] concerns HT-3 (Cervical Carcinoma). A digest of the protocol: as §1
Assay [13] deals with NCI-H1648 (Lung Adenocarcinoma). The procedure, abridged:
as §1

The subject of assay [14] is GRANTA-519 (B-Cell Non-Hodgkin's Lymphoma). The procedure, abridged:
as §1

Assay [15] concerns BC-1 (B-Cell Non-Hodgkin's Lymphoma). A digest of the protocol:
as §1

For a further assay, the system named is NCI-H2452 (Mesothelioma). The procedure, abridged: as §1
Assay [16] deals with Daudi (Burkitt's Lymphoma). The procedure, abridged:
as §1

Assay [17] relates to NCI-H1944 (Lung Adenocarcinoma). The procedure, abridged: as §1
In assay [18] the test system is C2BBe1 (Colorectal Carcinoma). The procedure, abridged:
as §1

As for `CN(C)CCCOc1ccc(-c2ccc3ncc4c(c3c2)n(C2CCOCC2)c(=O)n4C)cn1` [AZD0156] + O=C(c1cc(Cc2n[nH]c(=O)c3ccccc23)ccc1F)N1CCN(C(=O)C2CC2)CC1 [Olaparib] (first compound max 3 µM, partner max 3 µM), the Bliss excess was 0.16 in assay [1]; 0.206 in [2]; -0.0198 in [3]; -0.039 in assay [4]; 0.0264 in assay [5]; 0.0527 in [6]. Further, the Bliss excess in [7] was 0.0732; in [8], 0.0548; in assay [9] it was 0.011; in [10], -0.0073; with SK-N-DZ (Neuroblastoma) it was -0.0533; in [11], 0.244. Moreover, the Bliss excess is 0.0386 in assay [12]; 0.0271 in [13]; 0.0079 in [14]; 0.0648 in [15]; 0.12 in the assay with NCI-H2452 (Mesothelioma); 0.0672 in assay [16]. In addition, the Bliss excess in assay [17] is 0.106; in assay [18] it was -0.0428.

On to `COc1nnc2ccc(N3CCC(c4ccc(OCCN5CCN(C)C(=O)[C@H]5C)cc4)CC3)nn12` [AZD5153] + C[C@@H]1COCCN1C2=NC(=NC(=C2)C3(CC3)[S@](=N)(=O)C)C4=C5C=CNC5=NC=C4 [AZD6738] (first compound max 1 µM, 7x7, partner max 10 µM), for which the Bliss excess in assay [1] is 0.081; in assay [2] it was -0.032; in assay [3], -0.0072; in assay [4] it was -0.0281; in [5], -0.0394; in [6] it was -0.0092. For the same molecule, the Bliss excess was -0.0151 in assay [7]; -0.0013 in assay [8]; 0.0411 in assay [9]; -0.0453 in assay [10]; 0.0472 in the assay with SK-N-DZ (Neuroblastoma); -0.0209 in assay [11]. The Bliss excess in [12] was 0.0769; in [13], -0.0572; in assay [14], 0.0096; in [15], -0.0709; in the assay on NCI-H2452 (Mesothelioma) it was 0.0045; in assay [16] it was 0.0365. The Bliss excess in assay [17] is 0.0234; in [18], -0.0066.

In the case of `CN(CCO)CC[C@H](CSc1ccccc1)Nc1ccc(S(=O)(=O)NC(=O)c2ccc(N3CCC([C@@H](O)c4ccccc4-c4ccc(Cl)cc4)CC3)cc2)cc1S(=O)(=O)C(F)(F)F` [AZD4320] + Cn1cnc2c(F)c(Nc3ccc(Br)cc3Cl)c(C(=O)NOCCO)cc21 [Selumetinib] (first compound max 1 µM, 7x7, partner max 3 µM), the Bliss excess was -0.006 in assay [1]; -0.0148 in assay [2]; -0.0013 in assay [3]; 0.0036 in [4]; 0.0181 in assay [6]; 0.0547 in assay [7]. Moreover, the Bliss excess in [8] was 0.0125; in assay [9], -0.0611; in assay [10], 0.0311; in the assay with SK-N-DZ (Neuroblastoma), -0.0273; in [11], -0.0351; in assay [12], 0.0308. The Bliss excess in assay [13] is 0.0177; in assay [14], 0.0155; in [15] it was 0.0573; in the assay with NCI-H2452 (Mesothelioma), -0.0688; in assay [16], 0.0037; in assay [17] it was 0.0427. In assay [18], the Bliss excess came to 0.0082.

For `Cn1cnc2c(F)c(Nc3ccc(Br)cc3Cl)c(C(=O)NOCCO)cc21` [Selumetinib] + CCN(CCO)CCCOc1ccc2c(Nc3cc(CC(=O)Nc4cccc(F)c4)[nH]n3)ncnc2c1 [AZD2811] (first compound max 10 µM, 7x7, partner max 1 µM), the Bliss excess in assay [1] was -0.0059; in assay [2] it was -0.0518; in [3] it was 0.045; in [4], 0.0251; in assay [5] it was 0.0552; in [6], 0.0147. Also, the Bliss excess in assay [7] was -0.0253; in assay [8], 0.0012; in assay [9], -0.0981; in assay [10] it was -0.0194; with SK-N-DZ (Neuroblastoma) it was -0.0764; in [11] it was 0.0136. Moreover, the Bliss excess in assay [12] was -0.0288; in assay [13], 0.0048; in assay [14], 0.0288; in assay [15], 0.0349; in the assay with NCI-H2452 (Mesothelioma) it was -0.0726; in assay [16] it was 0.0504. For the same molecule, the Bliss excess in assay [17] was 0.068; in [18], -0.0439.

`CC1(C)CCC(CN2CCN(c3ccc(C(=O)NS(=O)(=O)c4ccc(NCC5CCOCC5)c([N+](=O)[O-])c4)c(Oc4cnc5[nH]ccc5c4)c3)CC2)=C(c2ccc(Cl)cc2)C1` [Venetoclax] + CCN(CCO)CCCOc1ccc2c(Nc3cc(CC(=O)Nc4cccc(F)c4)[nH]n3)ncnc2c1 [AZD2811] (first compound max 1 µM, 7x7, partner max 1 µM): the Bliss excess is -0.035 in assay [1]; 0.0166 in [2]; 0.0341 in assay [3]; -0.0195 in assay [4]; 0.169 in assay [5]; -0.0608 in assay [6]. For the same molecule, the Bliss excess in assay [7] is 0.0161; in assay [8] it was -0.0555; in [9], 0.0113; in assay [10], 0.0141; in the assay with SK-N-DZ (Neuroblastoma), 0.0269; in assay [11], -0.0241. Moreover, the Bliss excess was -0.0129 in assay [12]; -0.0235 in assay [13]; 0.234 in assay [14]; 0.111 in [15]; 0.0268 in the assay on NCI-H2452 (Mesothelioma); 0.005 in assay [16]. Besides, the results for the Bliss excess in [17] and in assay [18] were -0.0272 and -0.0368, respectively.

As to `NC1(C(=O)N[C@@H](CCO)c2ccc(Cl)cc2)CCN(c2ncnc3[nH]ccc23)CC1` [Capivasertib] + CC(C)n1c(=O)n(C)c2cnc3cc(F)c(-c4ccc(OCCCN5CCCCC5)nc4)cc3c21 [AZD1390] (first compound max 10 µM, 7x7, partner max 0.3 µM), the Bliss excess in assay [1] is -0.0648; in assay [2] it was -0.0144; in assay [3], -0.0985; in [4], -0.136; in assay [5] it was -0.0105; in [6], -0.0635. Moreover, the Bliss excess is -0.0792 in [7]; -0.0165 in [8]; -0.062 in assay [9]; -0.0749 in assay [10]; -0.0605 with SK-N-DZ (Neuroblastoma); -0.0456 in [11]. Also, the Bliss excess is -0.035 in assay [12]; -0.0077 in assay [13]; -0.0859 in assay [14]; -0.0175 in [15]; -0.0922 with NCI-H2452 (Mesothelioma); -0.0326 in assay [16]. Also, the Bliss excess in assay [17] was -0.0893; in assay [18], -0.0856.

As to `CN(CCO)CC[C@H](CSc1ccccc1)Nc1ccc(S(=O)(=O)NC(=O)c2ccc(N3CCC([C@@H](O)c4ccccc4-c4ccc(Cl)cc4)CC3)cc2)cc1S(=O)(=O)C(F)(F)F` [AZD4320] + C=CCn1c(=O)c2cnc(Nc3ccc(N4CCN(C)CC4)cc3)nc2n1-c1cccc(C(C)(C)O)n1 [AZD1775] (first compound max 1 µM, partner max 1 µM), the Bliss excess in assay [2] was -0.0172; in [3] it was -0.0295; in [4], -0.0383; in assay [5], -0.0535; in assay [6] it was 0.0129; in assay [7] it was 0.0264. The Bliss excess in assay [8] was 0.0195; in assay [9], 0.0695; in assay [10] it was 0.032; in the assay with SK-N-DZ (Neuroblastoma), 0.0351; in assay [11], 0.0269; in assay [12], -0.0296. In addition, the Bliss excess was -0.0353 in assay [13]; 0.0729 in assay [14]; 0.0386 in [15]; 0.0257 with NCI-H2452 (Mesothelioma); -0.0249 in assay [16]; 0.0312 in [17]. In [18], the Bliss excess is -0.0286.
